The record followed here is PubChem BioAssay (NCI).

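Five compound concentrations were applied to cells in 96-well plates for 48 hours; endpoints were derived by simple linear interpolation of the resulting dose-response curve. Definition used: TGI = concentration required for complete inhibition of growth.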

Test systems include CAKI-1 renal; HCT-116 colon; HL-60(TB) leukemia; HOP-62 NSCLC; HOP-92 NSCLC; IGROV1 ovarian; M14 melanoma; MOLT-4 leukemia; OVCAR-4 ovarian; RPMI-8226 leukemia; RXF 393 renal; SK-MEL-2 melanoma; SK-MEL-28 melanoma; SK-MEL-5 melanoma; SNB-19 CNS; SR leukemia; SW-620 colon; TK-10 renal; UACC-257 melanoma.
Common to all, as to assay: inhibition of tumour cell growth, NCI panel, 48 h

Take `COC(=O)c1cc2ccccc2c2nc3ccccc3c(Cl)c12`: the TGI in the assay on CAKI-1 renal, in the assay on HCT-116 colon, in the assay on HL-60(TB) leukemia, with HOP-62 NSCLC, in the assay on HOP-92 NSCLC and in the assay with IGROV1 ovarian was greater than 100 µM in each case. The TGI in the assay on M14 melanoma, in the assay with MOLT-4 leukemia, in the assay on OVCAR-4 ovarian, with RPMI-8226 leukemia, in the assay on RXF 393 renal and with SK-MEL-2 melanoma was greater than 100 µM throughout. The TGI in the assay with SK-MEL-28 melanoma, in the assay with SK-MEL-5 melanoma, in the assay on SNB-19 CNS, with SR leukemia, in the assay on SW-620 colon and in the assay with TK-10 renal was greater than 100 µM in each case. Further, the TGI in the assay with UACC-257 melanoma is greater than 100 µM.

Regarding `Cc1cc(OC(=O)c2c(C)cc(OC(=O)c3c(C)cc(O)cc3O)cc2O)cc(O)c1C(=O)O`, the TGI in the assay with CAKI-1 renal, with HL-60(TB) leukemia, with HOP-62 NSCLC, in the assay on HOP-92 NSCLC, in the assay with IGROV1 ovarian and in the assay on M14 melanoma was greater than 100 µM each time. Moreover, the TGI in the assay on MOLT-4 leukemia, with OVCAR-4 ovarian, in the assay on RPMI-8226 leukemia, with RXF 393 renal, with SK-MEL-2 melanoma and with SK-MEL-28 melanoma was greater than 100 µM in each case. For the same compound, the TGI in the assay on SK-MEL-5 melanoma, with SNB-19 CNS, in the assay on SW-620 colon, with TK-10 renal and with UACC-257 melanoma was greater than 100 µM in each case.

Take `O=C(NN1C(=O)C(Cl)C1c1c(O)ccc2ccccc12)c1ccccc1O` (stereo not given): the TGI with HCT-116 colon, in the assay on HL-60(TB) leukemia, in the assay on IGROV1 ovarian, in the assay on M14 melanoma, with MOLT-4 leukemia and with OVCAR-4 ovarian was greater than 100 µM throughout. The TGI in the assay on RXF 393 renal, in the assay on SK-MEL-2 melanoma, with SK-MEL-28 melanoma, in the assay on SK-MEL-5 melanoma, in the assay on SNB-19 CNS and in the assay with TK-10 renal was greater than 100 µM in each case. The TGI in the assay with UACC-257 melanoma is greater than 100 µM.

As to `Cn1c(=O)n2n(c1=O)C(S(=O)c1ccccc1)C2` (stereo not given), the TGI in the assay on CAKI-1 renal, with HCT-116 colon, with HOP-62 NSCLC, in the assay with HOP-92 NSCLC, with IGROV1 ovarian and in the assay on M14 melanoma was greater than 100 µM each time. The TGI in the assay on MOLT-4 leukemia, with OVCAR-4 ovarian, with RPMI-8226 leukemia, in the assay on RXF 393 renal, with SK-MEL-2 melanoma and in the assay on SK-MEL-28 melanoma was greater than 100 µM throughout. Further, the TGI in the assay on SK-MEL-5 melanoma, in the assay with SNB-19 CNS, in the assay on SR leukemia, in the assay with SW-620 colon, in the assay on TK-10 renal and in the assay on UACC-257 melanoma was greater than 100 µM each time.

For the compound `C/C(CC(=O)Nc1cccc(Cl)c1C)=N\N=C(N)N`, the TGI with CAKI-1 renal, with HCT-116 colon, with HL-60(TB) leukemia, in the assay with HOP-62 NSCLC, in the assay on HOP-92 NSCLC and in the assay on IGROV1 ovarian was greater than 100 µM in each case. For the same compound, the TGI with M14 melanoma, with MOLT-4 leukemia, in the assay with OVCAR-4 ovarian, in the assay on RPMI-8226 leukemia, in the assay on RXF 393 renal and in the assay with SK-MEL-2 melanoma was greater than 100 µM each time. The TGI with SK-MEL-28 melanoma, with SK-MEL-5 melanoma, in the assay with SNB-19 CNS, in the assay on TK-10 renal and in the assay with UACC-257 melanoma was greater than 100 µM throughout.

As to `C1=C(c2ccccc2)C(OC2Oc3ccccc3C=C2c2ccccc2)Oc2ccccc21` (stereo not given), the TGI in the assay on CAKI-1 renal, with HCT-116 colon, in the assay on HL-60(TB) leukemia, in the assay on HOP-62 NSCLC, in the assay on HOP-92 NSCLC and in the assay on IGROV1 ovarian was greater than 100 µM throughout. Also, the TGI in the assay with M14 melanoma, in the assay on MOLT-4 leukemia, in the assay with RPMI-8226 leukemia, in the assay with RXF 393 renal, in the assay on SK-MEL-2 melanoma and with SK-MEL-28 melanoma was greater than 100 µM each time. Further, the TGI in the assay with SK-MEL-5 melanoma, in the assay with SNB-19 CNS, in the assay with SR leukemia, with SW-620 colon, with TK-10 renal and in the assay with UACC-257 melanoma was greater than 100 µM throughout.

On to `C/C(=N\Nc1nc2ccccc2n1C)c1ccc2ccccc2n1`, for which the TGI was found to be 4.51 µM in the assay with CAKI-1 renal; 7.03 µM with HCT-116 colon; 18.2 µM with HOP-62 NSCLC; 37.8 µM in the assay with HOP-92 NSCLC; 2.74 µM with IGROV1 ovarian; 4.91 µM in the assay on M14 melanoma. In addition, the TGI was 0.954 µM in the assay on OVCAR-4 ovarian; 29.3 µM in the assay on RXF 393 renal; greater than 36 µM with SK-MEL-2 melanoma; 37.3 µM in the assay on SK-MEL-28 melanoma; 5.43 µM in the assay on SK-MEL-5 melanoma; greater than 100 µM in the assay with SNB-19 CNS. In addition, the TGI was 3.73 µM in the assay on SR leukemia, 25.8 µM in the assay with SW-620 colon, 34 µM in the assay with TK-10 renal and greater than 47 µM in the assay on UACC-257 melanoma.

For `COc1cccc2c1[C@H]1OC(=O)NC1CCCCC2` (stereo not given in full), the TGI in the assay with CAKI-1 renal, with HCT-116 colon, in the assay on HL-60(TB) leukemia, in the assay with HOP-62 NSCLC, with IGROV1 ovarian and in the assay with M14 melanoma was greater than 100 µM each time. Besides, the TGI in the assay on MOLT-4 leukemia, in the assay with OVCAR-4 ovarian, in the assay on RPMI-8226 leukemia, in the assay on RXF 393 renal, in the assay with SK-MEL-2 melanoma and in the assay on SK-MEL-28 melanoma was greater than 100 µM each time. Besides, the TGI in the assay with SK-MEL-5 melanoma, in the assay on SNB-19 CNS, in the assay on SW-620 colon, in the assay with TK-10 renal and in the assay on UACC-257 melanoma was greater than 100 µM each time.
